In brackets after ≈: the same amount, converted by molar mass.
Assays:
[1] = target: T1, Metabotropic glutamate receptor 5 (Homo sapiens, UniProt P41594); assay: Positive allosteric modulation of human mGluR5 expressed in HEK293A cells assessed as stimulation of glutamate-induced calcium flux by FLIPR method; type: functional, cell-based, HEK293-A; conditions: for Emax: HEK293-A
[2] = target: T1, Metabotropic glutamate receptor 5; assay: Displacement of [3H]NAM from mGluR5
Target sequence in this assay (P41594 whole entry): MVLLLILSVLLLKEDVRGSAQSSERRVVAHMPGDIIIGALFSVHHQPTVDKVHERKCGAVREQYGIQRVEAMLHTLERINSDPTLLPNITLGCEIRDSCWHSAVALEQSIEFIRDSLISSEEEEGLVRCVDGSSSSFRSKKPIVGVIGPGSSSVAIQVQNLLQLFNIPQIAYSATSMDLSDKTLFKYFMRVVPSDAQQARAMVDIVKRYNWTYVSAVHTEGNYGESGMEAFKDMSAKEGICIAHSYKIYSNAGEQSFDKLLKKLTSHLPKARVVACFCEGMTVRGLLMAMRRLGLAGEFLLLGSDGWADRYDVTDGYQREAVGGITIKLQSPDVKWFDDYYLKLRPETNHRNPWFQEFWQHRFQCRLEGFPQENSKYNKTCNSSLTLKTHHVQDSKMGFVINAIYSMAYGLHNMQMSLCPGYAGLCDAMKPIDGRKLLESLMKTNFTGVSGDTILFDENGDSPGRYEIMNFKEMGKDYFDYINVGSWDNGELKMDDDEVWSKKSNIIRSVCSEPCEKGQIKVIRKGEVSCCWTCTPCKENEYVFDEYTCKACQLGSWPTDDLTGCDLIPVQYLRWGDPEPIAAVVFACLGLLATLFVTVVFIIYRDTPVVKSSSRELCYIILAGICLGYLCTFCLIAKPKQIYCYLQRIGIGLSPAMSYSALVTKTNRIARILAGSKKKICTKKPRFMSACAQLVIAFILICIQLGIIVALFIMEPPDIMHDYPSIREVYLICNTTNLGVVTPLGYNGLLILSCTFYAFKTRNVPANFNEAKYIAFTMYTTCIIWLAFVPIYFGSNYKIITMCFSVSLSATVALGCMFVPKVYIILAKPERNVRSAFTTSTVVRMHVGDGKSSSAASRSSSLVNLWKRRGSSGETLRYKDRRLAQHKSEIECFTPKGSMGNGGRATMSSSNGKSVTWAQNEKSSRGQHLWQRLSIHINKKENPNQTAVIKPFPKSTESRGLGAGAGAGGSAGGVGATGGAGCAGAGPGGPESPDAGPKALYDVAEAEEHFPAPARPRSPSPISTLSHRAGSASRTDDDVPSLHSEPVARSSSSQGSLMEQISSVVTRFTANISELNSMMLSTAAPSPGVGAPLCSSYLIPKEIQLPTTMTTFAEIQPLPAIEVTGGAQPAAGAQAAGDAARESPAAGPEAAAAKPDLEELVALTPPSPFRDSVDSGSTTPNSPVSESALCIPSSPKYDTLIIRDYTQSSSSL

[3] = target: T1, Metabotropic glutamate receptor 5; assay: Negative allosteric modulation of human mGluR5 expressed in HEK293A cells assessed as inhibition of glutamate-induced calcium flux by FLIPR method; type: functional, cell-based, HEK293-A; conditions: for inhibition: HEK293-A, concentration not given here
[4] = Solubility of the compound in […] by UPLC method; type: physicochemical
Liver [5] = assay: Intrinsic clearance in rat liver; type: ADME, tissue-based
[6] = Apparent permeability from apical to basolateral direction in MDCKI cells expressing MDR; type: ADME, cell-based, Canis lupus familiaris; conditions: dog, MDCK-MDR1
[7] = Drug uptake in rat brain at 10 mg/kg, ip administered as single dose after 1 hr; type: ADME, organism-based; design: dose 10 mg/kg, route intraperitoneal; conditions: read-out: Drug uptake
[8] = Plasma concentration in rat at 10 mg/kg, ip administered as single dose after 1 hr; type: ADME, organism-based; design: dose 10 mg/kg, route intraperitoneal
[9] = Plasma protein binding in rat plasma; type: ADME, cell-free; conditions: read-out: PPB (converted)
[10] = Plasma protein binding in human plasma; type: ADME, cell-free; conditions: read-out: PPB (converted)
Liver [11] = assay: Intrinsic clearance in human liver; type: ADME, tissue-based
[12] = Ratio of drug uptake in brain to plasma in rat at 10 mg/kg, ip administered as single dose after 1 hr; type: ADME, organism-based; design: dose 10 mg/kg, route intraperitoneal; conditions: read-out: BPR
[13] = Apparent permeability from basolateral to apical direction in MDCKI cells expressing MDR; type: ADME, cell-based, Canis lupus familiaris; conditions: dog, MDCK-MDR1
Cytochrome P450 1A2 = target: T2, Cytochrome P450 1A2 (Homo sapiens, UniProt P05177); assay: Inhibition of CYP1A2; type: ADME
T2 sequence (P05177 whole entry): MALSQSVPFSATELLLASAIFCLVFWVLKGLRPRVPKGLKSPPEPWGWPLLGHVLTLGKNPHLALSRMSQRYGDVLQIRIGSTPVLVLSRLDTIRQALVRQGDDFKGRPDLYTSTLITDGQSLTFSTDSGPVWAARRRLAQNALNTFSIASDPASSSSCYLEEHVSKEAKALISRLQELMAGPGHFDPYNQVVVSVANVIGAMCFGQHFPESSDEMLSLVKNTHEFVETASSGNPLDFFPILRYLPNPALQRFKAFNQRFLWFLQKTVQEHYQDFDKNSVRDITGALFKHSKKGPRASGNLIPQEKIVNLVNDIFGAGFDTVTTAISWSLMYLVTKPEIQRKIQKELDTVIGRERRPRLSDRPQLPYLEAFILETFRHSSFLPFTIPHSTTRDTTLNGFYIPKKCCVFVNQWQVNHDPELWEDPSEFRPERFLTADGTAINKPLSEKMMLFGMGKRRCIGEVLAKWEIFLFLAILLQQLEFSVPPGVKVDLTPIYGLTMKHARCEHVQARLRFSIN

Cytochrome P450 3A4 = Cytochrome P450 3A4 (Homo sapiens, UniProt P08684); assay: Inhibition of CYP3A4; type: ADME
Cytochrome P450 2D6 = Cytochrome P450 2D6 (Homo sapiens, UniProt P10635); assay: Inhibition of CYP2D6; type: ADME
Cytochrome P450 2C19 = Cytochrome P450 2C19 (Homo sapiens, UniProt P33261); assay: Inhibition of CYP2C19; type: ADME
Cytochrome P450 2C9 = Cytochrome P450 2C9 (Homo sapiens, UniProt P11712); assay: Inhibition of CYP2C9; type: ADME
Sequence of Cytochrome P450 2C9 (P11712 whole entry): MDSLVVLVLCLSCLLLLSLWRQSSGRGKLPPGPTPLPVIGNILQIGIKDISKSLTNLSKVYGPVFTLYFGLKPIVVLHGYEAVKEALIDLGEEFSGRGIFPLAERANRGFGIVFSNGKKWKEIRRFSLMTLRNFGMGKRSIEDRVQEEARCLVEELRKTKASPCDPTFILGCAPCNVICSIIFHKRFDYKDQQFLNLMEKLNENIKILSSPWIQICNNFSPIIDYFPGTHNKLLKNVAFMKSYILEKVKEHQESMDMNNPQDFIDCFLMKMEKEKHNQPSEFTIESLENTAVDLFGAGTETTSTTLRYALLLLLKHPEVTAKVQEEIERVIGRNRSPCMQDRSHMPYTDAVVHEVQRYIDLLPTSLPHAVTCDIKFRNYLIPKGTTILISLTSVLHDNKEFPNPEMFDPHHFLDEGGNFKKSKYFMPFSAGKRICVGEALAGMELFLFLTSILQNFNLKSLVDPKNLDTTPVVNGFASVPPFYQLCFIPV

Sequence of Cytochrome P450 2C19 (P33261 whole entry): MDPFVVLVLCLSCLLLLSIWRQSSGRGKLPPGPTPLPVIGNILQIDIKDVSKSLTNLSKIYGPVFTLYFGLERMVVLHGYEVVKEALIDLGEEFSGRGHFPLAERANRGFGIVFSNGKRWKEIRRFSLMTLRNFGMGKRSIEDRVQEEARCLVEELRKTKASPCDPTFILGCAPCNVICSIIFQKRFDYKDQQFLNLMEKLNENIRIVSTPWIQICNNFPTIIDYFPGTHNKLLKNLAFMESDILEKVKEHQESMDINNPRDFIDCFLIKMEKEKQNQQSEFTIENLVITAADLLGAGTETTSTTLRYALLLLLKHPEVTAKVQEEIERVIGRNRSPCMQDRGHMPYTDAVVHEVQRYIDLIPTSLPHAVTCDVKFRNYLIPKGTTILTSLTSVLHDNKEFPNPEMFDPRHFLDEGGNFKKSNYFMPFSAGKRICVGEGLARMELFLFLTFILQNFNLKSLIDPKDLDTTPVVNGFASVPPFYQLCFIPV
Sequence of Cytochrome P450 2D6 (P10635 whole entry): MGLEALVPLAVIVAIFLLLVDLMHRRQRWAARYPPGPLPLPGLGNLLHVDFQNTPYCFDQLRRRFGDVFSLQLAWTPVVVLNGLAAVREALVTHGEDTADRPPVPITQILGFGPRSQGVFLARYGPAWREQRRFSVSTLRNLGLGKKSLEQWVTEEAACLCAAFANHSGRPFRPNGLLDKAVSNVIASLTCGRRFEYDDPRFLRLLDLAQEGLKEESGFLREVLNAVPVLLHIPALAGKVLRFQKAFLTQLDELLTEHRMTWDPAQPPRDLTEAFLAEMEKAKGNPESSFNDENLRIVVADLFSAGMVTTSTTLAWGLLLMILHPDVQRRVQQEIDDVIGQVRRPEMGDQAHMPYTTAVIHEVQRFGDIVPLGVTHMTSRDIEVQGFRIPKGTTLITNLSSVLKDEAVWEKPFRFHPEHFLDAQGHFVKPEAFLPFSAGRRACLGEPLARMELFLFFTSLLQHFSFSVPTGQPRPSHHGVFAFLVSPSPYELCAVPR
Sequence of Cytochrome P450 3A4 (P08684 whole entry): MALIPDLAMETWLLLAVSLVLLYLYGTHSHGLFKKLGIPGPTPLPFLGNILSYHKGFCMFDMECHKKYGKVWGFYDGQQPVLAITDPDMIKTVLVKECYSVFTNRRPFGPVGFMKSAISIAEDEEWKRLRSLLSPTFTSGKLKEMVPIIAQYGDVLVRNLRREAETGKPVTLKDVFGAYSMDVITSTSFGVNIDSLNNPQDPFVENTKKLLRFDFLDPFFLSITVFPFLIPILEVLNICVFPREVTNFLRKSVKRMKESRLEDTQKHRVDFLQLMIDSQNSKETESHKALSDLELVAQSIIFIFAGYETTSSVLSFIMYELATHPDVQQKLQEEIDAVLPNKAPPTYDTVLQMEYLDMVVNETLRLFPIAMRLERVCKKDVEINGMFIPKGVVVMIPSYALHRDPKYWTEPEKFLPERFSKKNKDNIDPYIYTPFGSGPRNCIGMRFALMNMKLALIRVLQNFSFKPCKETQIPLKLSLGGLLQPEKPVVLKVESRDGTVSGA

SMILES	EC50 [1]	Emax [1]	IC50 [3]	inhibition [3]	also measured
O=C1CC(c2nc(-c3cccc(Cl)c3)no2)CN1c1ccc(F)cc1 (single isomer, unassigned; (-))	8.8 nM	–	–	–	Ki [2]: 150 nM
O=C1CC(c2nc(-c3cccc(Cl)c3)no2)CN1c1ccc(Cl)c(Cl)c1 (configuration not stated)	460 nM	51%	> 10000 nM	8.3%	–
Cc1cccc(N2CC(c3nc(-c4cccc(Cl)c4)no3)CC2=O)c1 (configuration not stated)	> 10000 nM	28%	2300 nM	85%	–
O=C1CC(c2nc(-c3cccc(Cl)c3)no2)CN1c1ccc(F)cc1 (racemic) [listing 1 of 2 here]	–	55%	–	–	–
Cc1ccc(N2CC(c3nc(-c4cccc(C)c4)no3)CC2=O)cc1 (configuration not stated)	1300 nM	150%	–	–	–
O=C1COc2ccccc2N1Cc1nc(-c2cccc(Cl)c2)no1	> 10000 nM	-28%	770 nM	84%	–
Cc1cccc(-c2noc(C3CC(=O)N(c4ccc(Cl)cc4)C3)n2)c1 (configuration not stated)	170 nM	1.6%	–	–	–
O=C1CC(c2nc(-c3cccc(Cl)c3)no2)CN1Cc1ccc(F)cc1 (configuration not stated)	–	–	3600 nM	–	solubility [4]: 23 µM (≈ 8.55 µg/mL)
O=c1sc2ccccc2n1Cc1nc(-c2cccc(Cl)c2)no1	> 10000 nM	7%	1100 nM	71%	–
Cc1cccc(-c2noc(C3CC(=O)N(c4ccc(C)c(Cl)c4)C3)n2)c1 (configuration not stated)	240 nM	90%	–	–	–
O=C1CC(c2nc(-c3cccc(F)c3)no2)CN1c1ccc(Cl)c(Cl)c1 (configuration not stated)	3200 nM	140%	–	–	–
Cc1ccc(N2CC(c3nc(-c4cccc(C(F)(F)F)c4)no3)CC2=O)cc1 (configuration not stated)	3400 nM	32%	–	–	–
COc1ccc(N2CC(c3nc(-c4cccc(Cl)c4)no3)CC2=O)cc1 (configuration not stated)	> 10000 nM	47%	3520 nM	2%	–
O=C1CC(c2nc(-c3cccc(F)c3)no2)CN1c1ccc(Cl)cc1 (configuration not stated)	630 nM	120%	–	–	–
Cc1ccc(N2CC(c3nc(-c4cccc(F)c4)no3)CC2=O)cc1 (configuration not stated)	1200 nM	130%	–	–	–
O=C1CC(c2nc(-c3ccccc3)no2)CN1c1ccccc1 (configuration not stated)	350 nM	42%	–	–	–
O=C1COc2ccccc2N1CCc1nc(-c2cccc(Cl)c2)no1	> 10000 nM	-29%	800 nM	88%	–
C[C@H](c1ccccc1)N1C[C@H](c2nc(-c3cccc(Cl)c3)no2)CC1=O	–	–	1600 nM	–	solubility [4]: 23 µM (≈ 8.46 µg/mL)
O=C1CC(c2nc(-c3cccc(Cl)c3)no2)CN1c1ccc(Cl)cc1 (configuration not stated)	140 nM	67%	> 10000 nM	44%	–
O=C1CC(c2nc(-c3cccc(Cl)c3)no2)CN1c1ccccc1Cl (configuration not stated)	> 10000 nM	-31%	680 nM	93%	–
Cc1ccccc1N1CC(c2nc(-c3cccc(Cl)c3)no2)CC1=O (configuration not stated)	> 10000 nM	-29%	370 nM	91%	–
COc1cccc(N2CC(c3nc(-c4cccc(Cl)c4)no3)CC2=O)c1 (configuration not stated)	> 10000 nM	-37%	690 nM	92%	–
Cc1cccc(-c2noc(C3CC(=O)N(c4ccc(F)cc4)C3)n2)c1 (single isomer, unassigned; (-))	5.1 nM	–	–	–	CLH (Liver [5]): 20 mL/min; Papp A→B [6]: 20 ×10⁻⁶ cm/s; concentration at 1 h [7]: 342 ng/g; concentration at 1 h [8]: 46 ng/mL; fraction unbound [9]: 0.003; fraction unbound [10]: 0.007; Ki [2]: 230 nM; CLH (Liver [11]): 1 L/min; Kp at 1 h [12]: 7.5; Papp B→A [13]: 6.4 ×10⁻⁶ cm/s
CC(C)N1CC(c2nc(-c3cccc(Cl)c3)no2)CC1=O (configuration not stated)	–	–	–	–	solubility [4]: 23 µM (≈ 7.03 µg/mL)
COc1cccc(-c2noc(C3CC(=O)N(c4ccc(Cl)cc4)C3)n2)c1 (configuration not stated)	4800 nM	50%	–	–	–

SMILES	EC50 [1]	Emax [1]	IC50 [3]	inhibition [3]	also measured
O=C1CCc2ccc(Cl)cc2N1CCc1nc(-c2cccc(Cl)c2)no1	> 10000 nM	-29%	550 nM	82%	–
O=C1CC(c2nc(Cc3ccccc3)no2)CN1c1ccc(F)cc1 (configuration not stated)	–	–	–	–	solubility [4]: 23 µM (≈ 7.76 µg/mL)
Cc1cccc(-c2noc(C3CC(=O)N(c4ccc(F)cc4)C3)n2)c1 (racemic) [listing 1 of 2 here]	12.5 nM	–	–	–	CLH (Liver [5]): 27 mL/min; IC50 (Cytochrome P450 1A2): > 11 µM; IC50 (Cytochrome P450 3A4): > 11 µM; IC50 (Cytochrome P450 2D6): > 11 µM; solubility [4]: 2.7 µM (≈ 0.911 µg/mL); IC50 (Cytochrome P450 2C19): > 11 µM; IC50 (Cytochrome P450 2C9): > 11 µM; CLH (Liver [11]): 2.7 L/min
O=C1CC(c2nc(-c3cccc(C(F)(F)F)c3)no2)CN1c1ccc(F)cc1 (configuration not stated)	> 10000 nM	25%	–	–	–
O=C1CC(c2nc(-c3cccc(Cl)c3)no2)CN1c1ccccc1F (configuration not stated)	> 10000 nM	-29%	1100 nM	89%	–
O=C1CC(c2nc(-c3cccc(Cl)c3)no2)CN1c1ccc(F)cc1 (racemic) [listing 2 of 2 here]	10.7 nM	–	> 10000 nM	–	CLH (Liver [5]): 22 mL/min; concentration at 1 h [7]: 86 ng/g; concentration at 1 h [8]: 22 ng/mL; solubility [4]: 15 µM (≈ 5.37 µg/mL); Ki [2]: 410 nM; CLH (Liver [11]): 0.6 L/min
COc1cccc(-c2noc(C3CC(=O)N(c4ccc(F)cc4)C3)n2)c1 (configuration not stated)	1100 nM	48%	–	–	–
O=C1CC(c2nc(-c3ccccc3)no2)CN1c1ccc(F)cc1 (configuration not stated)	58 nM	130%	–	–	–
Cc1cccc(-c2noc(C3CC(=O)N(c4ccc(Cl)cc4)C3)n2)n1 (configuration not stated)	> 10000 nM	1%	–	–	solubility [4]: 26 µM (≈ 9.22 µg/mL)
Cc1cccc(-c2noc(C3CC(=O)N(c4ccc(F)cc4)C3)n2)c1 (racemic) [listing 2 of 2 here]	–	78%	–	–	–
Cc1ccc(N2CC(c3nc(-c4cccc(Cl)c4)no3)CC2=O)cc1 (configuration not stated)	630 nM	69%	> 10000 nM	-2.5%	–
O=c1oc2ccccc2n1Cc1nc(-c2cccc(Cl)c2)no1	> 10000 nM	4%	2100 nM	50%	–
O=C1CC(c2nc(-c3ccc(Cl)cc3)no2)CN1c1ccc(Cl)c(Cl)c1 (configuration not stated)	1100 nM	44%	–	–	–
Cc1ccc(N2CC(c3nc(-c4cccc(Cl)c4)no3)CC2=O)cc1C (configuration not stated)	310 nM	57%	> 10000 nM	–	–
Cc1ccc(N2CC(c3nc(-c4ccccc4)no3)CC2=O)cc1 (configuration not stated)	384 nM	41%	–	–	–
Cc1cccc(-c2noc(C3CC(=O)N(c4ccc(F)cc4)C3)n2)n1 (configuration not stated)	> 10000 nM	-15%	–	–	solubility [4]: 26 µM (≈ 8.8 µg/mL)
O=C1CC(c2nc(-c3ccc(F)cc3)no2)CN1c1ccc(Cl)c(Cl)c1 (configuration not stated)	2300 nM	44%	–	–	–
O=C1CC(c2nc(-c3cccc(Cl)c3)no2)CN1c1cccc(Cl)c1 (configuration not stated)	> 10000 nM	-18%	1100 nM	68%	–
O=C1CC(c2nc(-c3ccccn3)no2)CN1c1ccc(F)cc1 (configuration not stated)	> 10000 nM	-41%	–	–	solubility [4]: 26 µM (≈ 8.43 µg/mL)
O=C1CC(c2nc(-c3cccc(F)c3)no2)CN1c1ccc(F)cc1 (configuration not stated)	88 nM	140%	–	–	–
CC(C)CN1CC(c2nc(-c3cccc(Cl)c3)no2)CC1=O (configuration not stated)	–	–	920 nM	–	solubility [4]: 23 µM (≈ 7.36 µg/mL)
COc1ccccc1N1CC(c2nc(-c3cccc(Cl)c3)no2)CC1=O (configuration not stated)	> 10000 nM	-31%	630 nM	93%	–
Cc1cccc(-c2noc(C3CC(=O)N(c4ccc(Cl)c(Cl)c4)C3)n2)c1 (configuration not stated)	390 nM	65%	–	–	–
O=C1CC(c2nc(-c3ccc(F)cc3)no2)CN1c1ccc(Cl)cc1 (configuration not stated)	1700 nM	33%	–	–	–

Source: ChEMBL document CHEMBL2069226, “N-Aryl pyrrolidinonyl oxadiazoles as potent mGluR5 positive allosteric modulators” (Bioorg Med Chem Lett, 2012)
